Tested on: renal sympathetic tone
Test: Renal pressure-flow measurements in anesthetized swine before and after renal sympatholysis with intrathecal ropivacaine
Assay type: in vivo, pigs
Source text: METHODS: Referring to FIG. 4, nine adult male New Zealand White rabbits were implanted with arterial pressure telemeters and bilateral renal flow probes. One kidney of each rabbit was surgically denervated. The rabbits were acclimated to a procedure room and, after a two-week recovery, measurements of arterial pressure and bilateral renal blood flow were obtained in the conscious state. Referring to FIG. 5, ten pigs were induced and then anesthesia was maintained via ketamine-midazolam IV infusion. T9/T10 intrathecal and arterial access were established. A Volcano ComboWire® was placed in the renal artery to measure intravascular pressure and flow velocity. Intrathecal ropivacaine was given to reduce renal sympathetic tone, and renal pressure-flow measurements were repeated.
Referring to FIG. 6, Arterial pressure and renal blood flow measurements were used to estimate resistive flow as a function of time, which was in turn used to derive the renal pressure-flow time-varying transfer function (TVTF). TVTF analysis focused on known sympathetic vaso-motor frequencies (0.2-0.75 Hz in rabbits, 0.03-0.1 Hz in pigs). Control of renal vascular resistance in different states of innervation was characterized by occurrence plots of admittance gain and phase shift of the TVTF. Admittance gain reflects the normalized magnitude of oscillations in renal blood flow; phase shift reflects the timing of renal blood flow oscillations relative to arterial pressure.
Table 2 (below) illustrates the mean hemodynamics of the pigs before (“Baseline”) and after renal sympatholysis with intrathecal ropivacaine (“Ropi”).

## CCCN1CCCC[C@H]1C(=O)Nc1c(C)cccc1C [Ropi, ropivacaine]
Mean hemodynamics of anesthetized pigs after renal sympatholysis with intrathecal ropivacaine (T9/T10), baseline 24 +/− 3
  Renal Blood Flow Velocity: 28 ± 5 cm/s
Mean hemodynamics of anesthetized pigs after renal sympatholysis with intrathecal ropivacaine (T9/T10), baseline 83 +/− 4
  Arterial Pressure: 72 +/− 7 mmHg
Mean hemodynamics of anesthetized pigs after renal sympatholysis with intrathecal ropivacaine (T9/T10), baseline 85 +/− 8
  Heart Rate: 71 +/− 5 bpm
pigs, state PRIOR to intrathecal ropivacaine compared with after (0.03-0.1 Hz)
  Phase asynchrony of the renal pressure-flow time-varying transfer function at known sympathetic vasomotor frequencies: more phase asynchrony

Reference: patent US11896423B2, “Time-varying quantification of capacitive and resistive arterial blood flow” (Board of Regents of the University of Nebraska, priority 2018, dated 2024)
